These results are taken from the supplement of paper PMC8988213.

The test system of assay [1] is ID188 patient-derived PDAC 2D line (pre-FOLFIRINOX). As to the kind of experiment: normalised area under dose-response curve (viability relative to DMSO, 7 doses up to 10 µM) (fraction (AUC)); higher = less sensitive (more viability retained). The following applies: 72 h; top dose: 10 µM. The method in brief:
(§1)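 SelleckChem library compounds were tested for 72 h at seven concentrations (3-fold steps, highest 10 µM) on patient-derived 2D PDAC cells grown out from organoids. These cells had been robotically placed at 1,500–3,000 cells/well in 96-well plates and incubated overnight at 37°C with 5% CO2, and luminescence from CellTiter-Glo was recorded after 10 min. The GRmetrics R package gave the area under the dose-response curve from viability normalised to control wells.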

For assay [2], the system named is ID211 patient-derived PDAC 2D line (post-FOLFIRINOX). The assay is described as above. The settings on record: 72 h; top dose: 10 µM. The gist of the method: as §1

Counter-ions that a name gives are not always drawn.

For `O=C(Cc1cccc(OC(F)(F)F)c1)Nc1ccc(CCCCc2nnc(NC(=O)Cc3ccccn3)s2)nn1` [CB-839], the “normalised area under dose-response curve” value (shortened to “normalised area”) in assay [1] came to 0.596; in assay [2] it was 0.597.
`Cc1nc(NC(=O)N2CCC[C@H]2C(N)=O)sc1-c1ccnc(C(C)(C)C(F)(F)F)c1` [Alpelisib (BYL719)]: the “normalised area” value in assay [1] was 0.892; in assay [2] it was 0.696.
On to `NC(=O)c1ncn([C@@H]2O[C@H](CO)[C@@H](O)[C@H]2O)c1N` [AICAR (Acadesine)], for which the “normalised area” value was 0.934 in assay [1] and 0.887 in assay [2].
On to `CC(C)(O)CNc1nc(Nc2ccnc(C(F)(F)F)c2)nc(-c2cccc(C(F)(F)F)n2)n1` [Enasidenib (AG-221)], for which the “normalised area” value stood at 0.97 in assay [1] and 0.875 in assay [2].
For `C=CC(=O)Nc1cccc(Oc2nc(Nc3ccc(N4CCN(C)CC4)cc3)nc3ccsc23)c1`, the “normalised area” value in assay [1] stood at 0.921; in assay [2] it was 0.75.
As for `O=c1cc(N2CCOCC2)oc2c1ccc1ccccc12` [NU7026], the entries for the “normalised area” value in assay [1] and in assay [2] were 0.998 and 0.846, respectively.
Taken in the same sequence, the figures for `C[C@@H](C(=O)Nc1ccc(Cl)cc1)C1CCC(c2ccnc3ccc(F)cc23)CC1` (stereo partly specified) were 0.882 and 0.863.
On to `O=C(O)C(=O)O.[NH-][C@@H]1CCCC[C@H]1[NH-].[Pt+2]` [Oxaliplatin], for which the figures for the “normalised area” value in assay [1] and in assay [2] were 0.901 and 0.844, respectively.
As for `C=CCn1c(=O)c2cnc(Nc3ccc(N4CCN(C)CC4)cc3)nc2n1-c1cccc(C(C)(C)O)n1` [Adavosertib(MK-1775)], the “normalised area” value was 0.582 in assay [1] and 0.662 in assay [2].
Taken in the same sequence, the figures for `Cc1cc(Nc2cc(N3CCN(C)CC3)nc(Sc3ccc(NC(=O)C4CC4)cc3)n2)n[nH]1` [Tozasertib (VX-680, MK-0457)] were 0.235 and 0.716.
Taken in the same sequence, the figures for `Cc1ccc(C(=O)Nc2ccc(CN3CCN(C)CC3)c(C(F)(F)F)c2)cc1C#Cc1cnc2cccnn12` were 0.782 and 0.696.
Turning to `O=C(NC[C@H](O)CN1CCc2ccccc2C1)c1ccnc(NC2CCC2)c1` [GSK591], the figures for the “normalised area” value in assay [1] and in assay [2] were 0.843 and 0.881, respectively.
For the molecule `Cc1cc(Cl)ccc1OCCCC(=O)NO` [Droxinostat], the “normalised area” value in assay [1] turned out to be 0.946; in assay [2], 0.936.
`C/C(=N\NC(=S)N1CCC1)c1ccccn1`: the “normalised area” value in assay [1] worked out at 0.366; in assay [2], 0.138.
As to `Cn1cc(C2=C(c3cn(CCCSC(=N)N)c4ccccc34)C(=O)NC2=O)c2ccccc21` [Bisindolylmaleimide IX (Ro 31-8220 Mesylate)], the “normalised area” value in assay [1] stood at 0.942; in assay [2] it was 0.788.
For the molecule `C[C@@H](Oc1cc(-n2cnc3ccc(CN4CCN(C)CC4)cc32)sc1C(N)=O)c1ccccc1C(F)(F)F`, the “normalised area” value in assay [1] worked out at 0.687; in assay [2] it was 0.726.
Take `CC(=O)c1cc([N+](=O)[O-])c(Sc2ccc(F)cc2F)s1`: the “normalised area” value in assay [1] stood at 0.93; in assay [2] it was 0.966.
Consider `Cc1cccc(CC(=O)N2CCc3c2ccc(-c2cn(C)c4ncnc(N)c24)c3F)n1`, for which the “normalised area” value is 0.87 in assay [1] and 0.959 in assay [2].
For `Cc1ccc(C(=O)N(CCCN)[C@@H](c2nc3cc(Cl)ccc3c(=O)n2Cc2ccccc2)C(C)C)cc1`, the “normalised area” value in assay [1] was 0.5; in assay [2] it was 0.697.
Take `COc1nc(C)cnc1NS(=O)(=O)c1cccnc1-c1ccc(-c2nnco2)cc1` [Zibotentan (ZD4054)]: the “normalised area” value was found to be 0.96 in assay [1] and 0.955 in assay [2].
In the case of `c1ccc2c(CCNc3ccc(Nc4ccncc4)cc3)c[nH]c2c1`, the “normalised area” value in assay [1] came to 0.88; in assay [2], 0.796.
Take `O=C(CCNC(=O)c1ccc(OC(F)(F)F)cc1)N[C@@H]1CCCc2ccccc21` [ML390]: the “normalised area” value in assay [1] is 0.983; in assay [2], 0.788.
`COc1cc(N2CCN(C)CC2)ccc1Nc1nccc(-c2cn(C)c3cnccc23)n1` [AZ191]: the “normalised area” value is 0.971 in assay [1] and 0.867 in assay [2].
Taken in the same sequence, the figures for `CCN1C(=O)CNc2ncc(-c3ccc(-c4nc[nH]n4)nc3C)nc21` [CC-115] were 0.718 and 0.7.
As for `CN1CCN(CCOc2cc(OC3CCOCC3)c3c(Nc4c(Cl)ccc5c4OCO5)ncnc3c2)CC1` [Saracatinib (AZD0530)], the “normalised area” value was 0.858 in assay [1] and 0.609 in assay [2].
Taken in the same sequence, the figures for `CC(C)c1c(-c2ccccc2)nc2c(C#N)c[nH]n2c1=O` [CPI-455 HCl] were 0.972 and 0.898.
Regarding `C[C@H](NC(=O)CCC(F)(F)F)C(=O)N[C@@H]1C(=O)N(CCO)c2ncccc2-c2ccccc21`, the “normalised area” value in assay [1] was 0.939; in assay [2], 0.744.
Taken in the same sequence, the figures for `FC(F)c1nc2ccccc2n1-c1nc(N2CCOCC2)nc(N2CCOCC2)n1` [ZSTK474] were 0.712 and 0.642.
Consider `O=C1C(=O)N(Cc2ccc(Cl)c(Cl)c2)c2ccccc21` [Apoptosis Activator 2], for which the “normalised area” value in assay [1] worked out at 0.952; in assay [2], 0.969.
Taken in the same sequence, the figures for `CC(C)c1cc(C(=O)N2Cc3ccc(CN4CCN(C)CC4)cc3C2)c(O)cc1O` were 0.665 and 0.458.
Taken in the same sequence, the figures for `O=c1[nH]nc(Sc2ncc([N+](=O)[O-])s2)n1-c1ccc2c(c1)OCCO2` [BI-78D3] were 0.965 and 0.811.
`CC(=O)N1CCC[C@H]1C(=O)N[C@@H](Cc1cnc[nH]1)C(=O)N[C@@H](CO)C(=O)N[C@@H](CS)C(=O)N[C@@H](CC(N)=O)C(N)=O` [ATN-161 (Ac-PHSCN-NH2)]: the “normalised area” value in assay [1] turned out to be 1; in assay [2], 0.858.
As for `Cn1cncc1[C@@](N)(c1ccc(Cl)cc1)c1ccc2c(c1)c(-c1cccc(Cl)c1)cc(=O)n2C` [Tipifarnib], the “normalised area” value in assay [1] came out at 0.913; in assay [2], 0.832.
With `CC1=C(/C=C/C(C)=C/C=C/C(C)=C/C(=O)O)C(C)(C)CCC1` [Tretinoin], the “normalised area” value in assay [1] amounted to 1.12; in assay [2], 0.841.
In the case of `CS(=O)(=O)OCCCCOS(C)(=O)=O` [Busulfan], the “normalised area” value in assay [1] came out at 0.948; in assay [2], 0.814.
As for `CC(=O)c1cc([N+](=O)[O-])c(Sc2cccc(Cl)c2Cl)s1`, the “normalised area” value turned out to be 0.98 in assay [1] and 0.848 in assay [2].
Taken in the same sequence, the figures for `CCn1cc(-c2cccc(C(F)(F)F)c2)c2sc(C(=N)NC3CCS(=O)(=O)CC3)cc2c1=O` [I-BRD9] were 1.01 and 0.833.
For `CCc1cnn2c(NCc3ccc[n+]([O-])c3)cc(N3CCCC[C@H]3CCO)nc12`, the “normalised area” value was determined as 0.426 in assay [1] and 0.161 in assay [2].
For the molecule `CC(Nc1nc(N2CCCC2)nc2ccccc12)c1ccccc1` (stereo unspecified) [Importazole], the entries for the “normalised area” value in assay [1] and in assay [2] were 0.956 and 0.849, respectively.
Consider `O=c1cc(-c2cccc3c2Sc2ccccc2S3)oc(N2CCOCC2)c1`, for which the “normalised area” value in assay [1] came to 0.945; in assay [2] it was 0.834.
Taken in the same sequence, the figures for `O=C(O)C(=O)CBr` [Bromopyruvic acid] were 0.992 and 0.834.
As to `CCc1cncnc1N1CCN(Cc2nc3ccc(C(F)(F)F)cc3[nH]2)CC1`, the “normalised area” value is 0.92 in assay [1] and 0.936 in assay [2].
Take `CN[C@@H](C)C(=O)N[C@H](C(=O)N1CCC[C@H]1c1nc(C(=O)c2ccc(F)cc2)cs1)C1CCCCC1` [LCL161]: the “normalised area” value stood at 0.585 in assay [1] and 0.922 in assay [2].
As to `Cn1c(=O)cc(N2CCC[C@@H](N)C2)n(Cc2ccccc2C#N)c1=O` [Alogliptin], the figures for the “normalised area” value in assay [1] and in assay [2] were 0.952 and 0.817, respectively.
For the molecule `CC(C)CC(CC(=O)NO)C(=O)N[C@@H](Cc1ccc2ccccc2c1)C(=O)N[C@@H](C)C(=O)NCCN` (stereo partly specified) [TAPI-1], the “normalised area” value stood at 0.641 in assay [1] and 0.9 in assay [2].
Taken in the same sequence, the figures for `NS(=O)(=O)OC[C@@H]1C[C@@H](n2ccc3c(N[C@H]4CCc5ccccc54)ncnc32)C[C@@H]1O` [Pevonedistat (MLN4924)] were 0.825 and 0.589.
Taken in the same sequence, the figures for `C/C=C1\NC(=O)[C@H]2CSSCC/C=C/[C@H](CC(=O)N[C@H](C(C)C)C(=O)N2)OC(=O)[C@H](C(C)C)NC1=O` [Romidepsin] were 0.138 and 0.171.
Taken in the same sequence, the figures for `C[C@H](NC(=O)Cc1cc(F)cc(F)c1)C(=O)N[C@@H]1C(=O)N(C)c2ccccc2-c2ccccc21` were 0.89 and 0.782.
